Reference: patent US20250170098A1, “MOLECULAR JACKHAMMER FOR MECHANICAL DESTRUCTION OF CELLULAR STRUCTURE” (William Marsh Rice University, priority 2022, published 2025)

Legend:
[1] = tested on: A375 cells; assay: Crystal violet cell viability assay; type: cell-based, human; conditions: 2 μM; 10 min 730 nm light at 80 mW/cm^2
Protocol: Crystal violet cell viability assay. The crystal violet assay was used to measures the cell viability. The principle of this method is that the viable cells adhere to the surface of the cell culture dish and keep growing and remain attached through the standard cell culture conditions during a period of 1-2 days and through the staining conditions in the assay. […] For specific details, A375 cells were harvested and counted, and then 20,000 A375 cells per well were added in 24 cell culture well plate (Corning) and cultured for 1 day at standard incubation conditions of 37° C. and 5% CO2. The cells were treated in four experimental groups (4 samples per group): group 1) 0.1% DMSO, group 2) 0.1% DMSO+NIR light treatment, group 3) 2 μM Cy7.5-amine, and group 4) 2 μM Cy7.5-amine+NIR light. The treatments with 0.1% DMSO or 2 μM Cy7.5-amine were done by adding those respective concentrations to the cells in the media and then incubated for 60 min. Immediately after the incubation, the cells in the groups with “+NIR light”, were treated with 730 nm light at 80 mW/cm^2 for 10 min. After the treatment with NIR light, the media in all the groups was removed and fresh media was added. […] Then the crystal violet was quantified by its absorbance at 570 nm. The cell viability was calculated from the absorbance relative to the absorbance in the cells without any treatment. […]

[2] = tested on: B16-F10 melanoma tumors; assay: Treatment of B16-F10 melanoma tumors in C57BL/6 mice; type: in vivo, mouse
Protocol: Injection of B16-F10 cells subcutaneously in C57BL/6J mice to generate the melanoma tumors. The B16-F10 cells were cultured as described before. Cells were harvested from sub-confluent plates, ˜90%, and fresh media was added to the cells the day before harvesting. The cells were harvested using 0.05% trypsin-EDTA (Gibco, 25-300-054). The harvested cells were re-dispersed in DMEM media without supplements at 1×10^6 cells mL^−1. The cell suspension was kept in ice. Then 100 μL of cells were injected per mouse (this was 100,000 cells per mouse) subcutaneously in the right flank of a 7-8-week-old female mouse (C57BL/6J), in which the hair in the right flank was previously depilated using a shaver. […] Starting at day 12 the tumors were measured using a caliper. […] The volume of the tumor was calculated as: (½)×length×width×height. When the height was not possible to measure in the case of the tumors which were too small (usually <100 mm^3), then the tumor volume was calculated as: (½)×length×width^2. […]
Treatment of B16-F10 tumors with Cy7.5-amine and NIR 730 nm light. […] The light intensity was measured using an Optical Power Meter from Thorlabs, sensor model S302C and console model PM100D. While under light treatment the temperature at the tumor area was measured using an IR thermal camera (Model: Compact Seek Thermal for Android. Seek Thermal, Inc. Santa Barbara, CA). […]

[3] = tested on: A375 cells; assay: Clonogenic assay; type: cell-based, human
Protocol: The clonogenic assay was conducted to confirm that cancer cells treated by plasmon-driven MJH are indeed death upon NIR-light activation (FIG. 18). Three molecules were analyzed: the most VDA active BL-204, medium active BL-141-2 and low active Cy7-amine. […] This was accomplished by incubating the MJH molecules with the A375 cells for 50 min and immediately activate the plasmon-driven MJH using 730 nm NIR-light at 80 mW/cm^2 for 10 min. This is considered a short contact time between the MJH and the A375 cells.
Clonogenic assay. A375 cells were seeded in 35 mm cell culture dishes at predetermined densities to allow for an approximately equal number of resultant colonies. The next day, cells were treated with Cy7.5-amine at variable concentration and with or without 730 nm light at 80 mWcm^−2 for 10 min. The cells were incubated with Cy7.5-amine for 50 min before the illumination, the media was replaced with fresh media after the illumination and cells were cultured for 6 days to allow for colony formation. Cells were then washed once with PBS and fixed-stained in a 0.5% (w/v) crystal violet in methanol/water solution (1:1) during 10 min. The excess of crystal violet was washed off with water, the plates were dried at room temperature and then the colonies were counted using ImageJ software version 1.52a, and the survival fraction was determined. All treatments were in triplicate.

In the case of `CN1/C(=C\C=C2C=C(/C=C/C3=[N+](CCCCCC(=O)NCCCCCCN)c4ccc5ccccc5c4C3(C)C)CCC\2)C(C)(C)c2c1ccc1ccccc21` [Cy7.5-amine], the “dead cells by crystal violet assay” value [1] is reported as 99.9%, the “size of the B16-F10 tumors” value ([2]; 8 μg in 50 μL PBS intratumorally, 730 nm LED at for 5 min) is reported as “significantly reduced” and the “temperature increase of B16-F10 tumors under light treatment” value ([2]; Cy7.5-amine with light, for 5 min) is reported as roughly 5 °C. The “cells eradicated, clonogenic assay” value ([3]; 0.5 μM, 10 min 730 nm light at 80 mWcm^−2) was 100% and the “eradication of A375 cells, clonogenic assay (in words)” value ([3]; 1 μM + light (80 mWcm^−2 of 730 nm for 10 min)) was “complete eradication”.
